Laboratory results: PubChem BioAssay (NCI)
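Exposure lasted 48 hours, with cells grown in 96-well plates and compounds tested at five concentrations. Definition used: TGI = concentration required for complete inhibition of growth.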

What was measured:
Experiment in all cases: growth of human tumour cells (NCI), 48 h
[1] = system: CAKI-1 renal
[2] = system: COLO 205 colon
[3] = system: NCI-H226 lung
[4] = system: UACC-62 melanoma
[5] = system: SNB-19 CNS
[6] = system: NCI/ADR-RES ovarian
[7] = system: MDA-MB-231 breast
[8] = system: SR leukemia
[9] = system: M14 melanoma
[10] = system: MOLT-4 leukemia
[11] = system: ACHN renal
[12] = system: NCI-H460 lung
[13] = system: SW-620 colon
[14] = system: DU-145 prostate
[15] = system: NCI-H522 lung
[16] = system: NCI-H23 lung
[17] = system: HOP-62 NSCLC
[18] = system: TK-10 renal
[19] = system: IGROV1 ovarian
[20] = system: OVCAR-4 ovarian
[21] = system: MALME-3M melanoma
[22] = system: SF-539 CNS
[23] = system: RPMI-8226 leukemia
[24] = system: KM12 colon
[25] = system: A549 NSCLC
[26] = system: HS 578T breast
[27] = system: HCC-2998 colon
[28] = system: OVCAR-5 ovarian
[29] = system: U251 CNS
[30] = system: 786-0 renal
[31] = system: CCRF-CEM leukemia
[32] = system: SF-295 CNS
[33] = system: HL-60(TB) leukemia
[34] = system: SNB-75 CNS
[35] = system: HOP-92 NSCLC
[36] = system: OVCAR-3 ovarian
[37] = system: SK-MEL-5 melanoma
[38] = system: MDA-MB-435
[39] = system: K-562 leukemia
[40] = system: SK-MEL-28 melanoma
[41] = system: SF-268 CNS
[42] = system: MDA-N
[43] = system: T-47D breast
[44] = system: HT29 colon
[45] = system: HCT-116 colon
[46] = system: PC-3 prostate
[47] = system: SK-MEL-2 melanoma
[48] = system: MCF7 breast
[49] = system: OVCAR-8 ovarian
[50] = system: EKVX NSCLC
[51] = system: BT-549 breast
[52] = system: SK-OV-3 ovarian
[53] = system: UACC-257 melanoma
[54] = system: HCT-15 colon
[55] = system: RXF 393 renal
[56] = system: SN12C renal
[57] = system: LOX IMVI melanoma
[58] = system: A498 renal
[59] = system: UO-31 renal

COc1ccc2[nH]c3c(C)c4ncccc4c(C)c3c2c1
TGI [1]: > 10 µM
TGI [2]: > 10 µM
TGI [3]: > 10 µM
TGI [4]: > 10 µM
TGI [5]: > 10 µM
TGI [6]: > 10 µM
TGI [7]: > 10 µM
TGI [8]: > 10 µM
TGI [9]: 3.24 µM
TGI [10]: > 10 µM
TGI [11]: > 10 µM
TGI [12]: 5.46 µM
TGI [13]: 4.26 µM
TGI [14]: > 10 µM
TGI [15]: > 10 µM
TGI [16]: > 10 µM
TGI [17]: > 10 µM
TGI [18]: > 10 µM
TGI [19]: > 10 µM
TGI [20]: > 10 µM
TGI [21]: 3.42 µM
TGI [22]: > 10 µM
TGI [23]: 7.56 µM
TGI [24]: 3.87 µM
TGI [25]: 4.88 µM
TGI [26]: > 10 µM
TGI [27]: > 10 µM
TGI [28]: > 10 µM
TGI [29]: > 10 µM
TGI [30]: 2.85 µM
TGI [31]: > 10 µM
TGI [32]: 9.26 µM
TGI [33]: 5.85 µM
TGI [34]: > 10 µM
TGI [35]: > 10 µM
TGI [36]: 9.09 µM
TGI [37]: > 10 µM
TGI [38]: 3.21 µM
TGI [39]: > 10 µM
TGI [40]: 3.49 µM
TGI [41]: > 10 µM
TGI [42]: > 10 µM
TGI [43]: > 10 µM
TGI [44]: 6.98 µM
TGI [45]: > 10 µM
TGI [46]: > 10 µM
TGI [47]: > 10 µM
TGI [48]: 4.81 µM
TGI [49]: > 10 µM
TGI [50]: > 10 µM
TGI [51]: > 10 µM
TGI [52]: > 10 µM
TGI [53]: > 10 µM
TGI [54]: > 10 µM
TGI [55]: 9.39 µM
TGI [56]: > 10 µM

O=C(O)CNC(=O)C1NC(C(F)(F)F)(C(F)(F)F)OC1(C(F)(F)F)C(F)(F)F (stereo not drawn)
TGI [1]: > 100 µM
TGI [2]: > 100 µM
TGI [3]: > 100 µM
TGI [4]: > 100 µM
TGI [5]: > 100 µM
TGI [6]: > 100 µM
TGI [7]: > 100 µM
TGI [8]: > 100 µM
TGI [9]: > 100 µM
TGI [10]: > 100 µM
TGI [11]: > 100 µM
TGI [12]: > 100 µM
TGI [13]: > 100 µM
TGI [14]: > 100 µM
TGI [15]: > 100 µM
TGI [16]: > 100 µM
TGI [17]: > 100 µM
TGI [18]: > 100 µM
TGI [19]: > 100 µM
TGI [20]: > 100 µM
TGI [21]: > 100 µM
TGI [22]: > 100 µM
TGI [23]: > 100 µM
TGI [24]: > 100 µM
TGI [25]: > 100 µM
TGI [26]: > 100 µM
TGI [57]: > 100 µM
TGI [28]: > 100 µM
TGI [29]: > 100 µM
TGI [30]: > 100 µM
TGI [32]: > 100 µM
TGI [33]: > 100 µM
TGI [34]: > 100 µM
TGI [35]: > 100 µM
TGI [36]: > 100 µM
TGI [37]: > 100 µM
TGI [58]: > 100 µM
TGI [38]: > 100 µM
TGI [39]: > 100 µM
TGI [40]: > 100 µM
TGI [41]: > 100 µM
TGI [42]: > 100 µM
TGI [59]: > 100 µM
TGI [43]: > 100 µM
TGI [44]: > 100 µM
TGI [45]: > 100 µM
TGI [46]: > 100 µM
TGI [47]: > 100 µM
TGI [48]: > 100 µM
TGI [49]: > 100 µM
TGI [50]: > 100 µM
TGI [51]: > 100 µM
TGI [52]: > 100 µM
TGI [53]: > 100 µM
TGI [54]: > 100 µM
TGI [55]: > 100 µM
TGI [56]: > 100 µM
